Where two headings read alike, the source gives them in different places.
Assays:
[1] = tested on: NCI-H3122 (EML4-ALK fusion gene positive) human NSCLC; experiment: CDX model: efficacy and exposure in plasma, tumor, brain, lung; type: in vivo
Source text: NCI-H3122 (EML4-ALK fusion gene positive) is an ALK wild type human NSCLC. […] Higher drug concentration in the lungs provides the material basis for the treatment of lung cancer.

[2] = Single-dose toxicity study (acute toxicity)
[3] = tested on: 27 non-target kinases (MAP4K4 ... INSR, EGFR wild type); experiment: Inhibitory study of 27 non-target kinases; type: biochemical; conditions: except for EGFR wild type
M2 = M2 (Homo sapiens, UniProt P08172); experiment: GPCR antagonist screening assay; type: cell-based
[4] = cynomolgus monkey, in vivo
[5] = Metabolite identification in plasma; type: in vivo, SD rat; conditions: oral WX-0593
Source text: Under current experimental conditions, a total of 2 metabolites in addition to the parent drug were detected in rat plasma: a demethylation metabolite, M2 (MW = 554.23, P - CH2) and a mono-oxidation and dehydrogenation product, M6 (MW = 582.23, P + O - 2H). Based on the % peak area from mass spectrometry, the drug exists primarily as the parent drug in the plasma of both male and female rats (97.24% in females and 96.81% in males). Metabolites M2 (2.76% in females and 2.88% in males) and M6 ([…] and 0.31% in males) were both secondary metabolites. Based on the types of metabolites, it is speculated that WX-0593 is mainly metabolized through demethylation, oxidation, and dehydrogenation after oral administration in rats. There was no significant difference in metabolites between female and male rats.

Caco-2 cell monolayer = Caco-2 cell monolayer permeability assay; type: in vitro ADME
Source text: The objective of this study was to determine the bidirectional permeability and efflux ratio (ER) of the test article WX-0593 using the Caco-2 cell monolayer model.

[6] = Metabolic stability in liver microsomes; type: in vitro ADME; conditions: for half-life: read-out: elimination half-life
Source text: The objective of this study is to evaluate the metabolic stability of tested drug WX-0593 in CD-1 mice, SD rats, beagles, cynomolgus monkeys, and human liver microsomes.

[7] = tested on: advanced NSCLC patients with ALK or ROS1 rearrangement; experiment: Phase 1 dose-escalation phase: antitumor activity (RECIST 1.1, investigators); type: in vivo, human
Method: The starting dose for WX-0593 was 30 mg, which was selected on the basis of preclinical toxicology studies (data unpublished), according to the International Conference on Harmonisation Guidance for Industry S9 Nonclinical Evaluation for Anticancer Pharmaceuticals.[30] Three patients were assigned to each dose level. In the dosing cohort of 30 mg, treatment included a single WX-0593 dose, followed by 7-day PK evaluation period, and subsequent daily oral dosing for continuous 21 days. In other dosing cohorts, WX-0593 was administered orally as a single dose in the 4-day PK run-in period, followed by dosing once per day in continuous 21-day cycles. The DLT observation period was the first cycle of WX-0593 treatment (the single-dose period and 21 days of multiple-dose period). Patients performed imaging evaluation at baseline, with computed tomography or magnetic resonance imaging of the chest, abdomen, pelvis, and brain. In the dose-escalation phase, the first efficacy evaluation was done after 3-week continuous administration of WX-0593 and every 6 weeks thereafter. […] If responses (CR or PR) were observed, repeat assessments were required to confirm the responses 4 weeks after the initial evaluation. […] AEs were assessed in all patients throughout this study and graded per the National Cancer Institute Common Terminology Criteria for Adverse Events version 4.03. In the dose-escalation phase, the primary endpoints were MTD, DLT, and safety assessed by investigators and the subsequent recommended dose of WX-0593. Safety parameters included TEAEs, SAEs, and TRAEs. The key secondary endpoints were PK parameters and preliminary antitumor activity of WX-0593. ORR was defined as the proportion of patients who had best overall response, including CR or PR. PFS was calculated from the date of the first dose of WX-0593 to the date of documented disease progression or death (whichever occurred first). DCR was defined as the proportion of patients who had best overall response, including CR, PR, or SD, with a duration of at least 12 weeks. TTP was calculated from the date when the first dose of WX-0593 was given to first documented disease progression. […] OS was calculated from the date when the first dose of WX-0593 was administered to the date of death from any cause. Safety analysis was performed in the SS, which was comprised of all patients treated with one dose of WX-0593 and with safety data recorded. Efficacy analysis was performed in the FAS, which was defined as all patients treated with at least one dose of WX-0593. The PK analysis set included all patients treated with at least one dose of WX-0593 and with at least one evaluable PK sample. […] Descriptive statistics were carried out to summarize patients’ baseline characteristics and safety. […] All time-to-event data (PFS, TTP, DOR, and OS) and their corresponding 95% CIs were estimated by Kaplan–Meier methods. PK parameter analyses were done with Phoenix WinNonlin version 8.0. All other statistical analyses were conducted using SAS version 9.4.

[8] = Sprague-Dawley, rat, SD rats liver microsomes
[9] = beagle, dog, beagles liver microsomes
[10] = cynomolgus monkey, cynomolgus monkeys liver microsomes
[11] = mouse, CD-1 mice liver microsomes

Chain of M2 (P08172 whole entry): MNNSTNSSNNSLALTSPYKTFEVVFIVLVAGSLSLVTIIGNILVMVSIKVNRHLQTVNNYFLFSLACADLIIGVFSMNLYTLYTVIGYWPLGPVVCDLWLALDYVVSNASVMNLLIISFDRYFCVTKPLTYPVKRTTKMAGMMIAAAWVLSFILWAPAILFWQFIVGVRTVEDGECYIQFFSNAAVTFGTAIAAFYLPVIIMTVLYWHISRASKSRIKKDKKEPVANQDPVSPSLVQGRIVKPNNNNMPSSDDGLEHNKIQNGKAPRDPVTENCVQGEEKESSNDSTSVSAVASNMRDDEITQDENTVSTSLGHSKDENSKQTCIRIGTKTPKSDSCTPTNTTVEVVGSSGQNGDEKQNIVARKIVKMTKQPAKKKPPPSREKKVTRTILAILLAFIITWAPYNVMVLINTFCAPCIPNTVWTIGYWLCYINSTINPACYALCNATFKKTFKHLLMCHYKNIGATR

With `COc1cc(N2CCC3(CCN(C)CC3)CC2)ccc1Nc1ncc(Cl)c(Nc2ccccc2P(C)(C)=O)n1` [WX-0593] the “drug exposure in tumor tissue relative to brigatinib” value ([1]; 5 mg/kg each) was 2 times, the “efficacy compared with brigatinib” value ([1]; 5 mg/kg each) was “comparable” and the “plasma drug exposure compared with brigatinib” value ([1]; 5 mg/kg each) was “comparable”. For the same compound, the “drug exposure in the lungs relative to brigatinib” value ([1]; 5 mg/kg each, 1 h after dosing) was “approximately 2 times”, the “drug exposure in the brain relative to brigatinib” value ([1]; 5 mg/kg each, 8 h after dosing) was “approximately 2 times” and the “drug exposure in the lungs relative to brigatinib” value ([1]; 5 mg/kg each, 8 h after dosing) was “approximately 3 times”. The “treatment efficacy versus dose” value ([1]; 2.5, 5, 10 mg/kg) was “increased with dose”, the “rank of drug concentrations in tissues” value ([1]; 1 h and 8 h after dosing, all dose arms (2.5, 5, 10 mg/kg)) was “lungs > tumor > brain” and the “drug exposure at MTD as multiple of that at the effective dose” value ([2]; female animals) was 13.7 times. The “drug exposure at MTD as multiple of that at the effective dose” value ([2]; male animals) was 9.5 times, the “inhibitory activity against non-target kinases” value [3] was “no significant inhibitory activity” and the IC50 (M2) was over 10 µM. The “MTD as multiple of the effective dose in nude mice” value [4] was 20 times, the “% peak area from mass spectrometry in plasma” value ([5]; female rats) was 97.24% and the “% peak area from mass spectrometry in plasma” value ([5]; male rats) was 96.81%. The efflux transporter substrate (Caco-2 cell monolayer) was “very likely to be a substrate of efflux transporters”, the permeability (Caco-2 cell monolayer; 50 µM) was “high permeability” and the permeability (Caco-2 cell monolayer; 0.5 and 5 µM) was “low permeability”. For the same compound, the CLint scaled [6, 8] was under 17.3 mL/min/kg, the half-life [6, 8] was over 2.42 h and the CLint scaled [6, 9] was 14.7 mL/min/kg. The half-life [6, 9] was 2.27 h, the CLint scaled [6, 10] was under 13 mL/min/kg and the half-life [6, 10] was over 2.42 h. It also gave a CLint scaled ([6]; human liver microsomes) of under 9.5 mL/min/kg, a half-life ([6]; human liver microsomes) of over 2.42 h and a CLint scaled [6, 11] of 52.3 mL/min/kg. For the same compound, the half-life [6, 11] was 1.75 h, the “ORR (n/N, 95%CI)” value ([7]; ALK TKI naive, dose: 30, 60, 90, 120, 180, 240, 300 mg, 30 mg) was 66.7% (2/3, 9.4-99.2%) and the “ORR (n/N, 95%CI)” value ([7]; ALK TKI naive, dose: 30, 60, 90, 120, 180, 240, 300 mg, 90 mg) was 50.0% (1/2, 1.3-98.7%). For the same compound, the “ORR (n/N, 95%CI)” value ([7]; ALK TKI naive, dose: 30, 60, 90, 120, 180, 240, 300 mg, 120 mg) was 75.0% (6/8, 34.9-96.8%), the “ORR (n/N, 95%CI)” value ([7]; ALK TKI naive, dose: 30, 60, 90, 120, 180, 240, 300 mg, 180 mg) was 83.3% (5/6, 35.9-99.6%) and the “ORR (n/N, 95%CI)” value ([7]; ALK TKI naive, dose: 30, 60, 90, 120, 180, 240, 300 mg, 240 mg) was 60.0% (3/5, 14.7-94.7%). The “ORR (n/N, 95%CI)” value ([7]; ALK TKI naive, dose: 30, 60, 90, 120, 180, 240, 300 mg, 300 mg) was 100.0% (1/1, 2.5-100.0%), the DCR ([7]; ALK-rearranged patients) was 89.1% and the “ORR (n/N, 95%CI)” value ([7]; ALK-rearranged patients, total) was 63.0%. The “ORR (n/N, 95%CI)” value ([7]; ALK-rearranged, ALK TKI naive, dose: 30, 60, 90, 120, 180, 240, 300 mg, 30 mg) was 100% (2/2, 15.8-100%), the “ORR (n/N, 95%CI)” value ([7]; ALK-rearranged, ALK TKI naive, dose: 30, 60, 90, 120, 180, 240, 300 mg, 60 mg) was 66.7% (2/3, 9.4-99.2%) and the “ORR (n/N, 95%CI)” value ([7]; ALK-rearranged, ALK TKI naive, dose: 30, 60, 90, 120, 180, 240, 300 mg, 120 mg) was 85.7% (6/7, 42.1-99.6%). The “ORR (n/N, 95%CI)” value ([7]; ALK-rearranged, ALK TKI naive, dose: 30, 60, 90, 120, 180, 240, 300 mg, 180 mg) was 75.0% (3/4, 19.4-99.4%), the “ORR (n/N, 95%CI)” value ([7]; ALK-rearranged, ALK TKI naive, dose: 30, 60, 90, 120, 180, 240, 300 mg, 300 mg) was 100% (1/1, 2.5-100%) and the “ORR (n/N, 95%CI)” value ([7]; ALK-rearranged, crizotinib and other ALK TKIs, dose: 30, 60, 90, 120, 180, 240, 300 mg, 120 mg) was 100% (1/1, 2.5-100%). The “ORR (n/N, 95%CI)” value ([7]; ALK-rearranged, crizotinib and other ALK TKIs, total) was 100% (3/3, 29.2- 100%), the “ORR (n/N, 95%CI)” value ([7]; ALK-rearranged, crizotinib only, total) was 40.0% (8/20, 19.1-63.9%) and the DCR ([7]; ROS1-rearranged patients) was 80.0%. For the same compound, the “ORR (n/N, 95%CI)” value ([7]; ROS1-rearranged, crizotinib and other ALK TKIs, dose: 30, 60, 90, 120, 180, 240, 300 mg, 90 mg) was 0% (0/1, 0-97.5%), the “ORR (n/N, 95%CI)” value ([7]; ROS1-rearranged, crizotinib and other ALK TKIs, total) was 0% (0/2, 0-84.2%) and the “ORR (n/N, 95%CI)” value ([7]; ROS1-rearranged, crizotinib only, dose: 30, 60, 90, 120, 180, 240, 300 mg, 90 mg) was 0% (0/1, 0-97.5%). For the same compound, the “ORR (n/N, 95%CI)” value ([7]; ROS1-rearranged, crizotinib only, total) was 0% (0/3, 0-70.8%), the “median PFS” value ([7]; ROS1 rearrangement, crizotinib-naive (n = 7)) was 3.65 months and the “ORR (n/N, 95%CI)” value ([7]; baseline CNS metastasis, total) was 9.1% (2/22, 1.1-29.2%). For the same compound, the “ORR (n/N, 95%CI)” value ([7]; baseline measurable CNS metastasis, total) was 33.3% (2/6,4.3-77.7%), the “ORR (n/N, 95%CI)” value ([7]; prior crizotinib and other ALK TKI, dose: 30, 60, 90, 120, 180, 240, 300 mg, 120 mg) was 100% (1/1, 2.5-100%) and the “ORR (n/N, 95%CI)” value ([7]; prior crizotinib and other ALK TKI, total) was 100% (3/3, 29.2-100%). The “DOR, median (95% CI)” value ([7]; total (n=54)) was 10.87 (10.87, NR) mo, the “PFS, median (95% CI)” value ([7]; total (n=54)) was 11.89 (5.03, 11.89) mo and the “TTP, median (95% CI)” value ([7]; total (n=54)) was 11.89 (6.44, 11.89) mo.

— PMC8795197, “Safety and activity of WX-0593 (Iruplinalkib) in patients with ALK- or ROS1-rearranged advanced non-small cell lung cancer: a phase 1 dose-escalation and dose-expansion trial” (Signal Transduction and Targeted Therapy, 2022)
